Results published in the supplement of paper PMC10307832.

What was measured:
Assay in all cases: relative viability (nuclei count vs DMSO), 5 days (fraction); higher = more cells survive
Afatinib + Palbociclib = compound: CN(C)C/C=C/C(=O)Nc1cc2c(Nc3ccc(F)c(Cl)c3)ncnc2cc1O[C@H]1CCOC1 [Afatinib] + CC(=O)c1c(C)c2cnc(Nc3ccc(N4CCNCC4)cn3)nc2n(C2CCCC2)c1=O [Palbociclib] (partner 0.5 µM)
Summary of the method: (§1)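 Dosing by pin tool came one day after lung cancer cell lines were seeded in 1536-well plates, using either one drug or a fixed anchor-drug dose plus five library-drug doses (not always all listed) in √10 steps. After 5 days, nuclei were counted on 4× images. Relative viability is treated-well nuclei count divided by vehicle-well nuclei count, and values are medians of duplicate plates.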

Afatinib + Bortezomib = compound: CN(C)C/C=C/C(=O)Nc1cc2c(Nc3ccc(F)c(Cl)c3)ncnc2cc1O[C@H]1CCOC1 [Afatinib] + CC(C)C[C@H](NC(=O)[C@H](Cc1ccccc1)NC(=O)c1cnccn1)B(O)O [Bortezomib] (partner 0.002 µM)
Summary of the method: as §1

Afatinib + Foretinib = compound: CN(C)C/C=C/C(=O)Nc1cc2c(Nc3ccc(F)c(Cl)c3)ncnc2cc1O[C@H]1CCOC1 [Afatinib] + COc1cc2c(Oc3ccc(NC(=O)C4(C(=O)Nc5ccc(F)cc5)CC4)cc3F)ccnc2cc1OCCCN1CCOCC1 [Foretinib] (partner 0.25 µM)
Summary of the method: as §1

Afatinib + Pictilisib = compound: CN(C)C/C=C/C(=O)Nc1cc2c(Nc3ccc(F)c(Cl)c3)ncnc2cc1O[C@H]1CCOC1 [Afatinib] + CS(=O)(=O)N1CCN(Cc2cc3nc(-c4cccc5[nH]ncc45)nc(N4CCOCC4)c3s2)CC1 [Pictilisib] (partner 1 µM)
Summary of the method: as §1

Cell Line	relative viability (Afatinib + Palbociclib; first compound 0.005 µM)	relative viability (Afatinib + Palbociclib; first compound 0.01581 µM)	relative viability (Afatinib + Palbociclib; first compound 0.05 µM)	relative viability (Afatinib + Palbociclib; first compound 0.1581 µM)	relative viability (Afatinib + Palbociclib; first compound 0.5 µM)	relative viability (Afatinib + Bortezomib; first compound 0.005 µM)	relative viability (Afatinib + Bortezomib; first compound 0.01581 µM)	relative viability (Afatinib + Bortezomib; first compound 0.05 µM)	relative viability (Afatinib + Bortezomib; first compound 0.1581 µM)	relative viability (Afatinib + Bortezomib; first compound 0.5 µM)	relative viability (Afatinib + Foretinib; first compound 0.005 µM)	relative viability (Afatinib + Foretinib; first compound 0.01581 µM)	relative viability (Afatinib + Foretinib; first compound 0.05 µM)	relative viability (Afatinib + Foretinib; first compound 0.1581 µM)	relative viability (Afatinib + Foretinib; first compound 0.5 µM)	relative viability (Afatinib + Pictilisib; first compound 0.005 µM)	relative viability (Afatinib + Pictilisib; first compound 0.01581 µM)	relative viability (Afatinib + Pictilisib; first compound 0.05 µM)	relative viability (Afatinib + Pictilisib; first compound 0.1581 µM)	relative viability (Afatinib + Pictilisib; first compound 0.5 µM)
201T	0.336	0.346	0.354	0.358	0.339	1.09	0.921	1.02	1.07	1.13	1.04	1.05	1.01	0.949	1.17	0.682	0.658	0.662	0.659	0.698
A-427	0.523	0.526	0.537	0.483	0.505	0.981	1.05	1	1.05	1.04	0.85	1.05	1.11	0.947	1.02	0.729	0.684	0.587	0.774	0.658
ABC-1	0.559		0.576	0.572	0.561	0.32	0.342	0.349	0.271	0.304	1.25	1.01	1.08	0.743	1.21	0.816	0.52	0.679	0.578	0.762
BEN	0.447	0.565	0.535	0.455	0.484	0.918	0.651	0.882	0.957	0.905	0.719	0.63	0.651	0.634	0.775	0.563	0.532	0.565	0.601	0.589
CAL-12T	0.51	0.209	0.213	0.172	0.161	1.2	0.81	0.608	0.56	0.644	1.15	1.02	1.29	0.56	0.684	0.389	0.393	0.347	0.447	0.27
COR-L23	0.329	0.308	0.317	0.274	0.339	1.1	1.04	1.11	1.03	0.988	1.16	0.981	0.946	1	1.01	0.689	0.762	0.854	0.955	0.853
COR-L 105	0.398	0.355	0.3	0.36	0.352	0.3	0.31	0.334	0.262	0.362	0.385	0.448	0.37	0.287	0.318	0.359	0.355	0.302	0.252	0.35
Calu-6						1.15	0.97	1.13	1	1.08	0.913	0.975	0.882	0.88	0.93	0.999	0.941	1.01	0.964	0.989
